Assay results from US11778995B2, “Genetically modified non-human animals and methods of use thereof” (Regeneron Pharmaceuticals, Inc., priority 2012, dated 2023).

Test system: INA-6 cells
Assay: μCT analysis of murine femurs after treatment of INA-6-engrafted mice with anti-myeloma drugs
Format: in vivo, mouse
Conditions: Rag2−/−Il2rgnullIl6h/hhSIRPa+ mice engrafted with 5×10^5 intrafemorally injected INA-6 cells, treated biweekly, femurs analyzed after four weeks, compared to untreated mice
Excerpt: FIG. 7 is a graph depicting the results of μCT analysis of murine femurs after treatment with anti-myeloma drugs. Rag2^−/−Il2rg^nullIl6^h/hhSIRPa+ were engrafted with 5×10^5 intrafemorally injected INA-6 cells and treated biweekly with Velcade® or Zometa®, respectively. After four weeks, mice were sacrificed and femurs were fixed in 70% ethanol for μCT analysis. Trabecular bone and tissue volumes were quantified to calculate the ratio between bone to tissue volume.
Transplantation of cells. For intrafemoral transplantation of INA6 cells, Rag2^−/−Il2rg^null Il6^h/hhSIRPa^+ mice were irradiated twice with 200 rad from an X-ray source.
Indicated amounts of cells were then transplanted into the femur of recipient mice. Briefly, mice were anaesthetized using Ketamine/Xylazine and a hole was drilled into the patellar surface of the femur using a 26 gauge needle. The cells were then slowly injected in a volume of 20 μl using a 27 gauge needle. […]
μCT. Femur morphometry was quantified using cone-beam microfocus x-ray computed tomography (μCT40; ScancoMedicalAG). […]
Therefore, it was next examined whether transplantation of the tumor cell line in its natural microenvironment is able to reproduce the pathology typically associated with human MM. […] Specifically, the loss of trabecular bone mass was observed by histology, which was quantified by μCT. […]

## O=P(O)(O)C(O)(Cn1ccnc1)P(=O)(O)O [Zometa]
  bone resorption as quantified by μCT (ratio between bone to tissue volume): able to reduce bone resorption
